Measured values from US20240059688A1, “CONOLIDINE ANALOGUES AS SELECTIVE ACKR3 MODULATORS FOR THE TREATMENT OF CANCER” (Luxembourg Institute of Health (LIH), priority 2020, published 2024).
Marks after values point to notes of the source that are not given here.

Experiments:
Type in all cases: cell-based
[1] = molecular target: T1, ACKR3 (Homo sapiens, UniProt P25106); test: ACKR3 internalization assay by flow cytometry in U87-ACKR3 cells; parameters: expressed in transfected cells; host or cells: U87-ACKR3 (ACKR3-negative U87 as control); settings: 45 minutes at 37° C., anti-ACKR3 mAb 11G8, FIG. 6 section A
Experimental: For determination of receptor surface expression levels by flow cytometry, U87-ACKR3 cells were stimulated with WW-1 or WW-12 (50, 10, 5 1 μM) or BAM22 or ctrl peptides (1 μM) for 45 minutes at 37° C. The remaining surface-bound ligands were then removed by a brief wash with 150 mM NaCl, 50 mM glycine, pH 3 and twice with FACS buffer. Cell surface levels of ACKR3 were then measured by flow cytometry using a saturating concentration of receptor-specific mAb (clones 11G8) and a secondary phycoerythrin-conjugated F(ab′)2 fragment anti-mouse IgG (Jackson ImmunoResearch). Dead cells were excluded using the Zombie NIR fixable viability dye (BioLegend, catalog #423106, dilution 1:2000). Mean fluorescence intensity was quantified on a Novocyte Quanteon flow cytometer (ACEA Biosciences) using NovoExpress 1.4.1 (ACEA Biosciences).
Target sequence in this assay (P25106 whole entry, the tested form may be a part): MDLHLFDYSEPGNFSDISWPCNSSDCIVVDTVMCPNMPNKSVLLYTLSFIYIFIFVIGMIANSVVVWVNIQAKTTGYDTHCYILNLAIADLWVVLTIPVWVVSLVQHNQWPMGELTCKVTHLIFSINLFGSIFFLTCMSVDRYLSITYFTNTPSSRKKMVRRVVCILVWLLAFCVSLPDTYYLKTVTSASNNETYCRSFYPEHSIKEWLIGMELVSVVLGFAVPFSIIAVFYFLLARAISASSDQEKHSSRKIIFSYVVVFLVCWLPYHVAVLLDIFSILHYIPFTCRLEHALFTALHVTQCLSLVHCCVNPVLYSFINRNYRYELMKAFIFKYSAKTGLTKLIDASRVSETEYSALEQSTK

[2] = molecular target: KOR (Homo sapiens, UniProt P41145); test: KOR calcium mobilization agonist/antagonist screen (CHO-RD-HGA16 cells); parameters: host or cells: CHO-RD-HGA16; settings: single concentration; for Emax: CHO-RD-HGA16, agonist screen, control agonist U69,593; for KOR Calcium % U69, 593 Inhibition: antagonist screen, vs EC60 of U69,593
Experimental: Compounds were evaluated for kappa (KOR), mu (MOR), and delta (DOR) opioid receptor agonist and antagonist activity in three individual cell lines overexpressing Gαq16 (CHO-RD-HGA16, Molecular Devices) and the human kappa, mu, and delta opioid receptors, respectively. The day before the assay, cells were plated into 96-well black-walled assay plates at 30,000 cells/well in Ham's F12 supplemented with 10% fetal bovine serum, and 100 units of penicillin and streptomycin. The cells were incubated overnight at 37° C., 5% CO2. Prior to the assay, Calcium 5 dye (Molecular Devices) was reconstituted according to the manufacturer's instructions. The reconstituted dye was diluted 1:40 in pre-warmed (37° C.) assay buffer (1×HBSS, 20 mM HEPES, 2.5 mM probenecid, pH 7.4 at 37° C.). Growth medium was removed and the cells were gently washed with 100 μL of pre-warmed (37° C.) assay buffer. The cells were incubated for 45 minutes at 37° C., 5% CO2 in 200 μL of the diluted Calcium 5 dye. For the agonist screen, a single concentration of each test compound and receptor-specific controls (U69,593, DAMGO, and DPDPE for KOR, MOR, and DOR, respectively) were prepared at 10× the desired final concentration in 1% DMSO/assay buffer, aliquoted into a 96-well polystyrene plate, and warmed to 37° C. After the dye-loading incubation period, pretreatment solution was added to each well (25 μL of 9% DMSO/assay buffer) and, after 15 min, the plate was read with a FlexStation II (Molecular Devices). Calcium-mediated changes in fluorescence were monitored every 1.52 seconds over a 60 second time period, with the FlexStation II adding 50 μL of test compounds at the 19 second time point (excitation at 485 nm, detection at 525 nm). Peak kinetic reduction (SoftMax, Molecular Devices) relative fluorescence units (RFU) were used to calculate % control agonist Emax with the equation % Emax=(test compound RFU/control agonist RFU)×100. For the antagonist screens, the same procedure was followed except that the pretreatment solution consisted of the test compounds (prepared at […] the desired final concentration in 9% DMSO/assay buffer) and the FlexStation added the EC60 concentration (prepared at 10× the desired final concentration in 1% DMSO/assay buffer) of each respective control agonist. Peak RFU were used to calculate % control EC60 inhibition with the equation % inhibition=((EC60 RFU−test compound RFU)/EC60 RFU)×100. When IC50 determinations were made, the same antagonist screen procedure was followed except that cells were pretreated with 8-pt concentration-response curves of the test compounds. Peak RFU were plotted against the log of compound concentration using non-linear regression analysis to generate IC50 values (GraphPad Prism). Each test sample was analyzed in duplicate in two independent experiments.

[3] = molecular target: T1, ACKR3; test: NanoBiT β-arrestin-1 recruitment, receptor selectivity panel, ACKR3; parameters: expressed in transfected cells; host or cells: U87; settings: for modulation of ACKR3 in comparison with opioid receptor reference molecules (β-arrestin1 recruitment): NanoBiT, ACKR3 versus MOR, DOR, KOR, NOP, FIG. 5; for activation of ACKR3 (β-arrestin-1 recruitment) in receptor panel: concentration of 1 μM, FIG. 3 section A
Experimental: To further assess the selectivity profile of the compounds of the invention towards ACKR3, the ability to activate the 21 classical and 4 atypical chemokines receptors and related receptors was tested using the NanoBiT assay based β-arrestin-1 recruitment described previously. The 4 classical opioid receptors described above were also included in the experimental setup. The compounds WW-1 (conolidine) and WW-12 were tested at three different concentrations, 1 μM, 3 μM and 10 μM.
The ability of the compounds of the invention to activate ACKR3 and classical opioid receptors with reference synthetic molecules and approved pain medications such as morphine, fentanyl or buprenorphine that are known to modulate the classical opioid receptors MOR, DOR, KOR and NOP was also tested in NanoBiT based β-arerstin1 recruitment assay. […] The results are depicted in FIG. 5.
Ligand-induced β-arrestin recruitment to chemokine and opioid receptors was monitored by NanoLuc complementation assay (NanoBiT, Promega). In brief, 1.2×10^6 U87 cells were plated in 10-cm culture dishes and 48 hours later co-transfected with pNBe vectors encoding GPCRs (ACKR3, MOR, DOR, KOR, or NOP) C-terminally tagged with SmBiT and human β-arrestin-1 (arrestin-2) or β-arrestin-2 (arrestin-3) N-terminally fused to LgBiT. 48 hours post-transfection cells were harvested, incubated 25 minutes at 37° C. with Nano-Glo Live Cell substrate diluted 200-fold and distributed into white 96-well plates (5×10^4 cells per well). Ligand-induced, β-arrestin to GPCRs was evaluated with a Mithras LB940 luminometer (Berthold Technologies, running on MicroWin 2010 5.19 software (Mikrotek Laborsysteme)) for 20 minutes.
For single dose screening experiments on all chemokine receptors(FIG. 3), the results are represented as percentage of signal monitored with 100 nM of one known agonist chemokine listed in the IUPHAR repository of chemokine receptor ligands which was added as positive control.
Target sequence in this assay (P25106 whole entry, the tested form may be a part): as above
Target sequence in this assay (P49407 whole entry partner, the tested form may be a part): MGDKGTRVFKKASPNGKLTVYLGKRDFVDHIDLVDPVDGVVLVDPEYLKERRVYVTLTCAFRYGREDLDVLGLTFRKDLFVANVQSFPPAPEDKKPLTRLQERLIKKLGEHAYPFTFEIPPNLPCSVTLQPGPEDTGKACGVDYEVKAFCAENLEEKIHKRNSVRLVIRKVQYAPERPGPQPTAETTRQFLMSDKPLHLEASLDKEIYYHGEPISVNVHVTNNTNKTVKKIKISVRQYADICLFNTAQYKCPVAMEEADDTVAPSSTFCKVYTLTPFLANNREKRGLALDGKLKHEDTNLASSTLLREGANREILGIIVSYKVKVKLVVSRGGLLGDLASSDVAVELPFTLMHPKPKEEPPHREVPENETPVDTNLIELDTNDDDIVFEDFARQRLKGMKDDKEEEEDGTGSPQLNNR

KOR, sequence (P41145 whole entry): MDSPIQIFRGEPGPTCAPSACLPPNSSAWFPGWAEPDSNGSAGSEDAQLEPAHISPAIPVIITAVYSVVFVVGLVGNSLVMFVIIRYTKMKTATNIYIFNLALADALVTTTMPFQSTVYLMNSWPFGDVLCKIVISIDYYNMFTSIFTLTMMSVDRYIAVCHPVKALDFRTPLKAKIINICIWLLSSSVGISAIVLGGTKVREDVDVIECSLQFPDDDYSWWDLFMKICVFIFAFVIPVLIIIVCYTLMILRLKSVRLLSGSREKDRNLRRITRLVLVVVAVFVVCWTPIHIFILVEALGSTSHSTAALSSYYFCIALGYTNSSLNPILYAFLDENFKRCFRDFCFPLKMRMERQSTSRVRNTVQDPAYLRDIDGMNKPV

| SMILES | ACKR3 internalization from the plasma membrane [1] | Emax [2] [%] | KOR Calcium % U69, 593 Inhibition [2] | modulation of ACKR3 in comparison with opioid receptor reference molecules (β-arrestin1 recruitment) [3] | activation of ACKR3 (β-arrestin-1 recruitment) in receptor panel [3] |
| --- | --- | --- | --- | --- | --- |
| C/C=C1/CN(CCCCC)CC[C@H]1C(=O)c1cc2ccccc2[nH]1 [WW-12, [(3E,4R)-3-ethylidene-1-pentylpiperidin-4-yl](1H-indol-2-yl)methanone] | able to induce receptor internalization | 7 | 69** % | specific ACKR3 activators | activated ACKR3 |
| C/C=C1/CN2CC[C@H]1C(=O)c1[nH]c3ccccc3c1C2 [WW-1, (4E,5R)-4-ethylidene-1,4,5,7-tetrahydro-2,5-ethanoazocino[4,3-b]indol-6(3H)-one] | able to induce receptor internalization | 9 | 11% | specific ACKR3 activators | activated ACKR3 |
